Measured values as given in US7390910B2, “Compounds for treating tumors” (priority 2003, dated 2008).
Several values for one entry are separate records, joined by “and”; a condition that tells them apart may be missing. Identical values can stand only once.

Columns and labels:
KBV1 = experiment: cells; type: cell-based; conditions: 3 days, SRB
Procedure: (§1) Cell Survival Assay: Standard Pharmacological Test Procedure. […] Compounds are incubated with cells for 3 days.

KB cells = experiment: cells; type: cell-based; conditions: Homo sapiens, KB, 72 h, 3 days, SRB
Procedure: as §1

KB85 = experiment: cells; type: cell-based; conditions: 72 h, 3 days, SRB
Procedure: as §1

S1-M1 = experiment: Cell survival assay (SRB), S1-M1; type: cell-based; conditions: S1-M1 cells
Procedure: as §1

NCl-H1299 = experiment: Cell survival assay (SRB), NCl-H1299; type: cell-based; conditions: NCl-H1299 cells
Procedure: as §1

[1] = test system: bovine microtubule-associated protein (MAP)-rich tubulin; type: biochemical; conditions: 0.3 uM
Procedure, shortened: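 MAP-rich bovine tubulin at 1.5 mg/ml final was dissolved in cold PEM buffer (80 mM Na-PIPES pH 6.9, 1 mM MgCl2, 1 mM EGTA) with 1 mM GTP, then centrifuged at 12,000×g for 10 min at 4° C. Aliquots of 100 μl were added quickly to a low-volume 96-well plate holding duplicate 10 μl compound samples. Absorbance at 340 nm was read each minute for 60 min at 24° C.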

LOX = experiment: Cell survival assay (SRB), LOX; type: cell-based, human; conditions: Homo sapiens; LOX cells
Procedure: as §1

HCT-15 = experiment: Cell survival assay (SRB), HCT-15; type: cell-based; conditions: Homo sapiens; HCT-15 cells
Procedure: as §1

[2] = test system: Human Melanoma Carcinoma Lox; experiment: Growth of tumors in nude mice (LOX xenograft); type: in vivo, athymic nu/nu female mice; conditions: 10 mg/kg IV on days 1, 5, 9
Text: Growth of Tumors in Nude Mice. […] A p-value ≦0.05 indicates a statistically significant reduction in relative tumor growth of treated group compared to that of the vehicle control group.

S1 = experiment: Cell survival assay (SRB), S1; type: cell-based; conditions: S1 cells
Procedure: as §1

Colo205 = experiment: Cell survival assay (SRB), Colo205; type: cell-based; conditions: Homo sapiens, COLO 205, 72 h, Colo205 cells, 3 days
Procedure: as §1

KM20 = experiment: Cell survival assay (SRB), KM20; type: cell-based; conditions: KM20 cells
Procedure: as §1

A375 = experiment: Cell survival assay (SRB), A375; type: cell-based; conditions: Homo sapiens, A-375; A375 cells
Procedure: as §1

Row | SMILES | IC50 (KBV1; Homo sapiens, KB-V1, 72 h) | IC50 (KB cells) | IC50 (KB85) | IC50 (S1-M1) | IC50 (NCl-H1299) | Tubulin Polym. % inhibition at 0.3 uM [1] | IC50 (LOX) | IC50 (HCT-15) | % T/C on day 7 ([2]; day 7) | % T/C on day 12 ([2]; day 12) | % T/C on day 14 ([2]; day 14) | IC50 (S1) | IC50 (Colo205) | IC50 (KBV1) | IC50 (KM20) | IC50 (A375)
1 | CN[C@H](C(=O)N[C@H](C(=O)N(C)[C@H](/C=C(\C)C(=O)N1CCOCC1)C(C)C)C(C)(C)C)C(C)(C)c1ccccc1 [Example 27, (2S)-N-[(1S,2E)-1-isopropyl-3-methyl-4-(4-morpholinyl)-4-oxo-2-butenyl]-N,3,3-trimethyl-2-{[(2S)-3-methyl-2-(methylamino)-3-phenylbutanoyl]amino}butanamide] | 1300 nM | 43.5 nM | 73.5 nM | 336 nM | 38 nM | 69% | 50 nM | 26 nM | 13% and 11% | 2% | 2% | 657 nM | 23 nM |  |  | 
2 | CN[C@H](C(=O)N[C@H](C(=O)N(C)[C@H](/C=C(\C)C=O)C(C)C)C(C)(C)C)C(C)(C)c1ccccc1 [Example 82, N,β,β-trimethyl-L-phenylalanyl-N^1-[(1S,2E)-1-isopropyl-3-methyl-4-oxo-2-butenyl]-N^1,3-dimethyl-L-valinamide] | 1940 nM | 713 nM | 1330 nM |  | 1570 nM | 51% and 47% | 630 nM | 1500 nM |  |  |  |  | 5.1 nM | > 3000 nM | 4.6 nM | 663 nM
